Experimental findings from PubChem BioAssay (NCI) are described below.

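Tested at 5 concentrations; 48 h exposure; 96-well plates; endpoints linearly interpolated, else capped at highest concentration. GI50 marks 50% less growth. The concentration for full growth arrest is given as TGI.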 Bounds are passed on as bounds.

Among the test systems are A498 renal; A549 NSCLC; BT-549 breast; KM12 colon; RPMI-8226 leukemia; SF-268 CNS; SF-539 CNS; SK-MEL-28 melanoma; SW-620 colon; U251 CNS.
Holding throughout (experiment): NCI tumour cell line growth inhibition, 48 h

As to `CC(=O)O[C@H]1C(=O)[C@@]2(C)C(C(OC(=O)c3ccccc3)[C@]3(O)C[C@H](OC(=O)C(OC(=O)CCCC(=O)NCCCN(C)C)C(NC(=O)c4ccccc4)c4ccccc4)C(C)=C1C3(C)C)C1(OC(C)=O)COC1C[C@@H]2O` (stereo partly drawn), the TGI in the assay on A498 renal was 45.6 µM; with A549 NSCLC, greater than 85.3 µM; with BT-549 breast it was 31.9 µM; in the assay with KM12 colon, 3.19 µM; with RPMI-8226 leukemia, 28.7 µM; with SF-268 CNS it was 75.3 µM. Moreover, the TGI with SF-539 CNS stood at 0.0184 µM; in the assay with SK-MEL-28 melanoma, 55.5 µM; in the assay on SW-620 colon it was 22.4 µM; in the assay with U251 CNS it was 20.8 µM.
For `COc1cc(/C=C\c2cc(OC)c(OC)c(OC)c2)cc(N/C=C\C(=O)c2ccc(OC(F)(F)F)cc2)c1OC`, the GI50 in the assay with A498 renal is 1.83 µM; with A549 NSCLC, 4.54 µM; with BT-549 breast it was 5.9 µM; in the assay on KM12 colon, 3.69 µM; in the assay on RPMI-8226 leukemia, 3.66 µM; in the assay with SF-268 CNS, 8.9 µM. The GI50 in the assay with SF-539 CNS is 2.21 µM; in the assay with SK-MEL-28 melanoma, 10.4 µM; in the assay with SW-620 colon it was 4.09 µM; in the assay with U251 CNS it was 3.46 µM. For the same molecule, the TGI in the assay with A498 renal was 7.59 µM; with A549 NSCLC, greater than 100 µM; in the assay with BT-549 breast, greater than 100 µM; in the assay with KM12 colon, greater than 100 µM; with RPMI-8226 leukemia, 19.6 µM; in the assay on SF-268 CNS, greater than 100 µM. For the same molecule, the TGI was 5.92 µM in the assay on SF-539 CNS, greater than 100 µM with SK-MEL-28 melanoma, greater than 100 µM in the assay on SW-620 colon and greater than 100 µM in the assay with U251 CNS.
For `c1ccc2sc(SCCSc3nc4ccccc4s3)nc2c1`, the TGI with A498 renal, with A549 NSCLC, with BT-549 breast, with KM12 colon, with RPMI-8226 leukemia and in the assay on SF-268 CNS was greater than 100 µM in each case. The TGI with SK-MEL-28 melanoma, with SW-620 colon and with U251 CNS was greater than 100 µM in each case.
Take `Cc1cc(O)c(=O)cc2c1C[C@H]1CC(C)(C)/C=C/C[C@]3(C)Oc4cc(=O)c(O)cc(C)c4C[C@H]3C[C@H](O)[C@@]1(C)O2`: the GI50 in the assay on A549 NSCLC is less than 0.01 µM; with BT-549 breast it was 0.0319 µM; in the assay on KM12 colon, less than 0.01 µM; in the assay on RPMI-8226 leukemia, 0.0185 µM; in the assay on SF-268 CNS it was less than 0.01 µM; in the assay on SF-539 CNS it was 0.0332 µM. Moreover, the GI50 in the assay with SK-MEL-28 melanoma was 0.0423 µM; with SW-620 colon it was less than 0.01 µM. Besides, the TGI with A549 NSCLC is 2.13 µM; in the assay on BT-549 breast, 4.55 µM; in the assay on KM12 colon it was greater than 100 µM; in the assay with RPMI-8226 leukemia, 2.97 µM; with SF-268 CNS, greater than 63.1 µM; in the assay with SF-539 CNS, 58.6 µM. For the same molecule, the TGI was 19.9 µM in the assay with SK-MEL-28 melanoma and greater than 100 µM in the assay with SW-620 colon.
Take `CCOC(=O)/C(=C/N1CCN(C(=O)c2ccco2)C1=S)C(=O)c1ccccc1`: the GI50 in the assay on A549 NSCLC is 11.6 µM; with BT-549 breast, 8.96 µM; in the assay on KM12 colon, 10.1 µM; in the assay with RPMI-8226 leukemia, 12.4 µM; in the assay with SF-268 CNS, 7.18 µM; with SK-MEL-28 melanoma, 22.2 µM. For the same molecule, the GI50 is 7.93 µM in the assay with SW-620 colon and 11.5 µM with U251 CNS. In addition, the TGI in the assay on A549 NSCLC is 36.3 µM; in the assay on BT-549 breast, 25 µM; with KM12 colon, greater than 50 µM; with RPMI-8226 leukemia, greater than 50 µM; in the assay on SF-268 CNS it was 19.9 µM; in the assay on SK-MEL-28 melanoma, greater than 50 µM. Besides, the TGI in the assay with SW-620 colon is 24 µM; with U251 CNS, greater than 50 µM.
As to `O=C(Nc1ccc2[nH]nc(-c3ccncc3)c2c1)[C@@H]1CCN(CC(=O)N2CCN(c3ccc(-c4ncccn4)cc3)CC2)C1`, the GI50 with A498 renal is 0.0778 µM; with A549 NSCLC, 5.09 µM; in the assay on KM12 colon, 0.431 µM; in the assay with RPMI-8226 leukemia it was 4.29 µM; in the assay with SF-268 CNS it was greater than 69.7 µM; in the assay on SF-539 CNS, 5.1 µM. The GI50 in the assay with SW-620 colon is 0.101 µM; with U251 CNS it was 0.613 µM. Besides, the TGI in the assay on A498 renal was 0.533 µM; in the assay on A549 NSCLC, greater than 100 µM; in the assay on BT-549 breast it was greater than 100 µM; with KM12 colon, greater than 100 µM; in the assay on RPMI-8226 leukemia, greater than 66.7 µM; in the assay on SF-268 CNS, greater than 100 µM. Moreover, the TGI was 31.3 µM in the assay on SF-539 CNS, greater than 100 µM in the assay with SW-620 colon and 18.9 µM with U251 CNS.
As to `CCN1C/C(=C\c2cc(OC)c(OC)cc2OC)C(=O)/C(=C/c2cc(OC)c(OC)cc2OC)C1`, the GI50 is 2.56 µM in the assay on A498 renal; 3.67 µM in the assay on A549 NSCLC; 2.87 µM with BT-549 breast; 1.57 µM with KM12 colon; 2.35 µM in the assay on RPMI-8226 leukemia; 2.61 µM with SF-539 CNS. Further, the GI50 was 2.48 µM in the assay on SK-MEL-28 melanoma, 3.2 µM in the assay on SW-620 colon and 3.08 µM in the assay on U251 CNS. In addition, the TGI in the assay on A498 renal is 7.81 µM; in the assay on A549 NSCLC, greater than 100 µM; with BT-549 breast, 8.72 µM; in the assay on KM12 colon, 3.04 µM; in the assay with RPMI-8226 leukemia it was 6.78 µM; in the assay with SF-539 CNS it was 7.33 µM. The TGI in the assay with SK-MEL-28 melanoma amounted to 5.6 µM; in the assay on SW-620 colon, 13.3 µM; in the assay on U251 CNS it was 14.3 µM.
On to `Cc1nc2ccc(Nc3nc(Cl)nc(N4CCOCC4)n3)cc2n1Cc1ccccc1`, for which the GI50 with A498 renal is 2.85 µM; in the assay with A549 NSCLC, 50.3 µM; in the assay with BT-549 breast, 2.89 µM; in the assay with KM12 colon, greater than 100 µM; with RPMI-8226 leukemia, 97.2 µM; in the assay on SF-268 CNS it was 3.11 µM. In addition, the GI50 with SF-539 CNS is 14.2 µM; with SK-MEL-28 melanoma, 1.75 µM; in the assay with SW-620 colon it was 3.1 µM. Moreover, the TGI is greater than 100 µM with A498 renal; greater than 100 µM with A549 NSCLC; 29.4 µM with BT-549 breast; greater than 100 µM in the assay with KM12 colon; greater than 100 µM in the assay on RPMI-8226 leukemia; greater than 100 µM in the assay on SF-268 CNS. Besides, the TGI in the assay with SF-539 CNS was 47.6 µM; with SK-MEL-28 melanoma, 3.29 µM; in the assay on SW-620 colon, greater than 100 µM.
Consider `Cc1ccc(S(=O)(=O)OCCn2cnc3nc(NC(=O)c4ccccc4)[nH]c(=O)c32)cc1`, for which the TGI with A498 renal, in the assay on A549 NSCLC, with KM12 colon, with RPMI-8226 leukemia, with SF-268 CNS and with SF-539 CNS was greater than 100 µM throughout. Moreover, the TGI with SK-MEL-28 melanoma, in the assay with SW-620 colon and with U251 CNS was greater than 100 µM throughout.
